# Test results reported in publication PMC3785238 (Cell, 2013).
# Non-standard residues stand in square brackets, D forms with d. No end group written: not given here. pS = N[C@@H](COP(=O)(O)O)C(=O)O
# How the values were obtained:
# [1] = tested on: NMDA receptors; experiment: Whole-cell voltage clamp: mGluR5-SIC, NMDA receptor dependence; assay type: cell-based
# [2] = tested on: GST-Pin1; assay type: binding; conditions: mGluR5 expressed in HEK293 cells
# [3] = tested on: mGluR5; conditions: bath application, 5 μM
# [4] = biological target: T1, Homer1a (Rattus norvegicus, UniProt Q9Z214); experiment: ITC of mGluR5 peptide into full length Homer1a; assay type: binding; conditions: versus unphosphorylated peptide
# T1 sequence (Q9Z214 1-186 isoform Q9Z214-3): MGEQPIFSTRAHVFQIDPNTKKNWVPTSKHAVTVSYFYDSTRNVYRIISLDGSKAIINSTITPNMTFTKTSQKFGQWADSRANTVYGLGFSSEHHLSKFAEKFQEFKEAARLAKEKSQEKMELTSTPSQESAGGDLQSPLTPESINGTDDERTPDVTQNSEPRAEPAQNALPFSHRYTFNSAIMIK
# [5] = biological target: Pin1 (Homo sapiens, UniProt Q13526); experiment: 15N ZZ-exchange NMR: Pin1-catalyzed cis/trans isomerization of mGluR5 peptide; assay type: biochemical; conditions: Homer1a equimolar to peptide; Pin1 sub-stoichiometric (1:10)
# Sequence of Pin1 (Q13526 whole entry, species assumed): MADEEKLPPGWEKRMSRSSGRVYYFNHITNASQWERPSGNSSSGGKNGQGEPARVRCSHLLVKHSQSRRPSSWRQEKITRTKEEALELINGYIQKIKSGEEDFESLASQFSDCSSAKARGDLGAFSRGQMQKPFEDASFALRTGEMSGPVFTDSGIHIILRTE
# [6] = tested on: mGluR5-SIC; assay type: cell-based, mouse; conditions: Homer1−/−Homer2−/−Homer3−/− neurons; for effect of Pin1 peptide on BDNF potentiation of mGluR5-SIC: 0.5 μM in the pipette, n = 5
# [7] = tested on: mGluR5; experiment: mGluR5 phosphorylation and Homer1a expression in mouse striatum; assay type: in vivo
# [8] = tested on: Pin1-mGluR5; experiment: Pin1 co-immunoprecipitation with mGluR5 from mouse striatum; assay type: in vivo
# [9] = tested on: locomotor activity of mice; experiment: Cocaine locomotion and motor sensitization; assay type: in vivo, mouse
# [10] = tested on: glutamate and dopamine in the nucleus accumbens; experiment: In vivo microdialysis: glutamate and dopamine in nucleus accumbens; design: species or system mouse
# [11] = biological target: T1, Homer1a; experiment: Homer1a induction in cultured striatal neurons; assay type: cell-based; conditions: 30 min, 50 mM KCl
# [12] = tested on: mGluR5-SIC; experiment: Whole-cell voltage clamp: SKF38393; assay type: cell-based, mouse
# [13] = tested on: corticostriatal synapse depotentiation; experiment: Field potential recording: depotentiation of corticostriatal LTP; design: species or system mouse; conditions: SKF38393 3 μM
# [14] = 20 mg/kg, i.p., mice, n = 6 each group
# [15] = i.p. four times, 10 or 30 mg/kg
# [16] = 10 mg/kg, WT n = 7, Grm5AA/AA n = 9
molecule,measurement,setting,value
N[C@@H](CCCP(=O)(O)O)C(=O)O [APV],block of mGluR5-SIC by APV,[1]; 50 μM,blocked
"mGluR5(T1123A, S1126A): mutant that prevents phosphorylation at both sites",GST-Pin1 binding to full-length mGluR5,[2],did not bind
"Cc1cccc(C#Cc2ccccc2)n1 [MPEP, 2-Methyl-6-(phenylethynyl)pyridine]",block of mGluR5-SIC by MPEP,[3],blocked
C[C@]12N[C@H](Cc3ccccc31)c1ccccc12 [MK-801],block of mGluR-SIC by MK-801,[1]; in the recording pipette,Blockade
mGluR5-pS: mGluR5 peptide phosphorylated at S^1126 in vitro (KELVALTPP[pS]PFRD),increase in Homer1a affinity on S1126 phosphorylation,[4],> 10 fold
same,Pin1 catalysis of pS1126-P bond in the presence of equimolar Homer1a,[5],Pin1 was able to catalyze isomerization of pS^1126-P bond
WT mGluR5: full-length mGluR5 expressed in HEK293 cells,GST-Pin1 binding to full-length mGluR5,[2],bound
N#CC(=C(/N)Sc1ccccc1N)/C(C#N)=C(/N)Sc1ccccc1N [UO126],block of BDNF potentiation of mGluR5-SIC by MEK inhibitor,[6]; 20 μM,blocked BDNF potentiation
COC(=O)[C@H]1[C@@H](OC(=O)c2ccccc2)C[C@@H]2CC[C@H]1N2C [cocaine],"mGluR5 phosphorylation, WT and Homer triple knockout","[7]; 10 mg/kg, i.p., 30 min, WT n = 6, Homer1−/−Homer2−/−Homer3−/− n = 7, versus saline",increased mGluR5 phosphorylation
same,Homer1a expression in striatum,[7]; [14],induces Homer1a expression
same,mGluR5 Ser-1126 phosphorylation in striatum,[7]; [14],induces transient phosphorylation
same,mGluR5 Thr-1123 phosphorylation in striatum,[7]; [14],not Thr-1123
same,double phosphorylation of mGluR5,"[7]; cocaine administration, immunoselection of pT1123",Double phosphorylation is induced
same,"Pin1 co-immunoprecipitation with mGluR5, Homer triple knockout","[8]; 10 mg/kg, i.p., 30 min, Homer1−/−Homer2−/−Homer3−/− mice",increases after cocaine administration
same,"increase of Pin1 binding, WT mice","[8]; acute cocaine, WT mice",did not detect an increase of Pin1 binding in WT mice
same,"acute locomotor response, Grm5AA/AA mice","[9]; acute, i.p., 10 or 30 mg/kg",increased locomotor response to acute cocaine
same,"acute locomotor response, Grm5TS/AAPin1+/− double heterozygotes","[9]; acute, i.p., 10 or 30 mg/kg",WT-levels of activity in response to acute cocaine
same,"motor sensitization, Grm5AA/AA mice",[9]; [15],markedly reduced sensitization
same,"motor sensitization, Grm5TS/AAPin1+/− double heterozygotes",[9]; [15],reduced motor sensitization
same,"motor sensitization, Homer1a−/− mice",[9]; [15],profound deficit of cocaine motor sensitization
same,"acute locomotor response, Homer1a−/− mice","[9]; initial dose, i.p. 10 or 30 mg/kg",WT-like response to the initial dose of cocaine
same,"dopamine response, Grm5AA/AA mice, 1st injection",[10]; [16],modest reduction
same,"glutamate response, Grm5AA/AA mice, 1st injection",[10]; [16],normal glutamate response
same,"glutamate and dopamine response, Grm5AA/AA mice, 4th injection","[10]; 10 mg/kg, WT n = 7, Grm5AA/AA n = 9, P < 0.05",blunted neurotransmitter responsiveness
same,"glutamate and dopamine response, Homer1a−/− mice, 1st injection","[10]; 30 mg/kg, n = 8 each group",normal glutamate and dopamine responses
same,"glutamate and dopamine response, Homer1a−/− mice, 4th injection","[10]; 30 mg/kg, n = 8 each group, P < 0.05",blunted neurotransmitter responsiveness
COC(=O)[C@@]1(O)C[C@H]2O[C@]1(C)n1c3ccccc3c3c4c(c5c6ccccc6n2c5c31)C(=O)NC4 [K252a],block of BDNF potentiation of mGluR5-SIC by TrkB inhibitor,[6]; 100 nM,blocked BDNF potentiation
[Cl-].[K+] [KCl],Homer1a induction,[11],induced Homer1a
CC(C(O)c1ccc(O)cc1)N1CCC(Cc2ccccc2)CC1 (stereo not shown) [ifenprodil],block of mGluR5-SIC by ifenprodil,[1],blocked
Ac-FY[pS]PR-NH2 [Pin1 control peptide mimic],effect of Pin1 peptide on BDNF potentiation of mGluR5-SIC,[6],not by Pin1 control peptide mimic
Ac–Phe–Phe–pSer-Ψ[(Z)CH=C]-Pro–Arg–NH2 [Pin1 peptide mimic inhibitor],effect of Pin1 peptide on BDNF potentiation of mGluR5-SIC,[6],blocked
O=C(O)[C@@H]1[C@H](C(=O)O)NCCN1C(=O)c1ccc2c(ccc3ccccc32)c1 [PPDA],block of mGluR5-SIC by PPDA,[1]; 0.2 μM,blocked
mGluR5(T1123A): mutant that prevents phosphorylation at T1123,GST-Pin1 binding to full-length mGluR5,[2],bound
mGluR5(S1126A): mutant that prevents phosphorylation at S1126,GST-Pin1 binding to full-length mGluR5,[2],bound
Oc1cc2c(cc1O)C(c1ccccc1)CNCC2 (stereo not shown) [SKF38393],"mGluR5-SIC potentiation, D1R-GFP neurons","[12]; SKF38393 1 μM after KCl pretreatment, D1-GFP, n = 8, p < 0.001",robust and consistent potentiation
same,"mGluR5-SIC potentiation, D2-GFP neurons","[12]; SKF38393 1 μM after KCl pretreatment, D2-GFP, n = 10",not D2 receptor-expressing neurons
same,"mGluR5-SIC potentiation, Homer triple knockout neurons","[12]; SKF38393 1 μM, bath, Homer1−/−Homer2−/−Homer3−/− neurons",potentiated
same,neurons with potentiation of mGluR5-SIC,"[12]; SKF38393 1 μM, Homer1−/−Homer2−/−Homer3−/− neurons, p < 0.005",6 of 13 neurons
same,"depotentiation, pretreatment, WT slices","[13]; 0.5 hrs before HFS, n = 6 and n = 8",prevented depotentiation
same,"depotentiation, pretreatment, Homer1a−/− slices","[13]; 0.5 hrs before HFS, n = 10",failed to block depotentiation
same,"depotentiation, pretreatment, Grm5AA/AA slices","[13]; 0.5 hrs before HFS, n = 12",failed to block depotentiation
same,"depotentiation, acute, WT slices","[13]; beginning 25 min after HFS, n = 4",did not block depotentiation
same,"depotentiation, acute, Grm5R/R slices","[13]; beginning 25 min after HFS, n = 6",did block depotentiation
